Tests used:
S. aureus Newman [1] = assay: fitness (endpoint OD595 vs no drug) (fraction); higher = more growth; settings: one replicate
Procedure, shortened: (§1)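 Fitness was defined as the optical density at the transition into stationary phase relative to the robust mean of no-drug control wells. Values were capped at 1. Cultures were started at OD595 0.01 in 384-well plates (30 µl, or 55 µl for S. pneumoniae) in TSB, LB Lennox or CY at 37 °C. OD595 was recorded every 30 min over 14 h, with the first reading subtracted as background.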

S. pneumoniae D39V [2] = assay: as above
Procedure, shortened: as §1

S. aureus DSM 20231 = assay: Bliss interaction score (quartile over a dose matrix) (fitness difference); higher = more antagonism (negative = synergy)
Procedure, shortened: (§2)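 Growth in each well was taken as OD595 at entry into stationary phase. Dividing by the plate's robust no-drug mean and capping at 1 gave fitness, and single-drug fitness was inferred from the combination data. The Bliss score, observed minus product-expected fitness, is summarised by quartiles over technical, biological and donor/recipient replicates.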

B. subtilis 168 = assay: as above
Procedure, shortened: as §2

S. aureus Newman [3] = assay: as above
Procedure, shortened: as §2

S. pneumoniae D39V [4] = assay: as above
Procedure, shortened: as §2
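For Bliss interaction score (quartile over a dose matrix) in this document: first quartile when negative (synergy) and third quartile when positive (antagonism).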

C/C(=C\C(=O)OCCCCCCCCC(=O)O)C[C@@H]1OC[C@H](C[C@@H]2O[C@H]2[C@@H](C)[C@H](C)O)[C@@H](O)[C@H]1O [Pseudomonic acid] + CN[C@@H]1[C@H](O)[C@H](NC)[C@H]2O[C@@]3(O)C(=O)C[C@@H](C)O[C@H]3O[C@@H]2[C@H]1O [Spectinomycin]
fitness
Settings	first compound 0.03 µg/mL	first compound 0.0313 µg/mL	first compound 0.06 µg/mL	first compound 0.0625 µg/mL	first compound 0.12 µg/mL	first compound 0.125 µg/mL
S. aureus Newman [1], partner 4 µg/mL	–	0.0277	–	0.0288	–	0.0466
S. aureus Newman [1], partner 8 µg/mL	–	0.0165	–	0.0234	–	0.0364
S. aureus Newman [1], partner 16 µg/mL	–	0.0048	–	0.0214	–	0.0111
S. pneumoniae D39V [2], partner 4 µg/mL	0.899	–	0.87	–	0.564	–
S. pneumoniae D39V [2], partner 8 µg/mL	0.924	–	0.793	–	0.53	–
S. pneumoniae D39V [2], partner 16 µg/mL	0.756	–	0.716	–	0.443	–

Settings	Bliss interaction score
B. subtilis 168	0.0538
S. aureus DSM 20231	-0.0116
S. aureus Newman [3]	-0.0301
S. pneumoniae D39V [4]	-0.0665

C/C(=C\C(=O)OCCCCCCCCC(=O)O)C[C@@H]1OC[C@H](C[C@@H]2O[C@H]2[C@@H](C)[C@H](C)O)[C@@H](O)[C@H]1O [Pseudomonic acid] + CN[C@@H]1[C@H](O[C@H]2[C@H](O[C@H]3[C@H](O)[C@@H](O)[C@H](N=C(N)N)[C@@H](O)[C@@H]3N=C(N)N)O[C@@H](C)[C@]2(O)C=O)O[C@@H](CO)[C@H](O)[C@H]1O [Streptomycin]
fitness
Settings	first compound 0.03 µg/mL	first compound 0.0313 µg/mL	first compound 0.06 µg/mL	first compound 0.0625 µg/mL	first compound 0.12 µg/mL	first compound 0.125 µg/mL
S. aureus Newman [1], partner 2 µg/mL	–	0.0148	–	0.0368	–	0.0312
S. aureus Newman [1], partner 4 µg/mL	–	0.0183	–	0.0224	–	0.0173
S. aureus Newman [1], partner 8 µg/mL	–	0.0145	–	0.0198	–	0.0269
S. pneumoniae D39V [2], partner 2 µg/mL	0.897	–	0.719	–	0.52	–
S. pneumoniae D39V [2], partner 4 µg/mL	0.903	–	0.708	–	0.491	–
S. pneumoniae D39V [2], partner 8 µg/mL	0.699	–	0.565	–	0.384	–

S. pneumoniae D39V [2], partner 16 µg/mL, one replicate
Settings	fitness
first compound 0.03 µg/mL	0.545
first compound 0.06 µg/mL	0.439
first compound 0.12 µg/mL	0.238

Settings	Bliss interaction score
B. subtilis 168	0.0523
S. aureus DSM 20231	-0.013
S. aureus Newman [3]	-0.0275
S. pneumoniae D39V [4]	-0.178

C/C(=C\C(=O)OCCCCCCCCC(=O)O)C[C@@H]1OC[C@H](C[C@@H]2O[C@H]2[C@@H](C)[C@H](C)O)[C@@H](O)[C@H]1O [Pseudomonic acid] + CN[C@H](CC(C)C)C(=O)N[C@H]1C(=O)N[C@@H](CC(N)=O)C(=O)N[C@H]2C(=O)N[C@H]3C(=O)N[C@H](C(=O)N[C@H](C(=O)O)c4cc(O)cc(O)c4-c4cc3ccc4O)[C@H](O)c3ccc(c(Cl)c3)Oc3cc2cc(c3O[C@@H]2O[C@H](CO)[C@@H](O)[C@H](O)[C@H]2O[C@H]2C[C@](C)(N)[C@H](O)[C@H](C)O2)Oc2ccc(cc2Cl)[C@H]1O [Vancomycin]
Settings	fitness
S. aureus Newman [1], first compound 0.0313 µg/mL, partner 0.1875 µg/mL	0.0232
S. aureus Newman [1], first compound 0.0313 µg/mL, partner 0.375 µg/mL	0.0206
S. aureus Newman [1], first compound 0.0313 µg/mL, partner 0.75 µg/mL	0.0349
S. aureus Newman [1], first compound 0.0625 µg/mL, partner 0.1875 µg/mL	0.0221
S. aureus Newman [1], first compound 0.0625 µg/mL, partner 0.375 µg/mL	0.0409
S. aureus Newman [1], first compound 0.0625 µg/mL, partner 0.75 µg/mL	0.053
S. aureus Newman [1], first compound 0.125 µg/mL, partner 0.1875 µg/mL	0.0473
S. aureus Newman [1], first compound 0.125 µg/mL, partner 0.375 µg/mL	0.0505
S. aureus Newman [1], first compound 0.125 µg/mL, partner 0.75 µg/mL	0.0388
S. pneumoniae D39V [2], first compound 0.03 µg/mL, partner 0.03125 µg/mL	0.983
S. pneumoniae D39V [2], first compound 0.03 µg/mL, partner 0.0625 µg/mL	0.973
S. pneumoniae D39V [2], first compound 0.03 µg/mL, partner 0.125 µg/mL	0.9
S. pneumoniae D39V [2], first compound 0.06 µg/mL, partner 0.03125 µg/mL	0.873
S. pneumoniae D39V [2], first compound 0.06 µg/mL, partner 0.0625 µg/mL	0.865
S. pneumoniae D39V [2], first compound 0.06 µg/mL, partner 0.5 µg/mL	0.259
S. pneumoniae D39V [2], first compound 0.12 µg/mL, partner 0.03125 µg/mL	0.641
S. pneumoniae D39V [2], first compound 0.12 µg/mL, partner 0.0625 µg/mL	0.611
S. pneumoniae D39V [2], first compound 0.12 µg/mL, partner 0.5 µg/mL	0.21

Settings	Bliss interaction score
B. subtilis 168	0.0278
S. aureus DSM 20231	-0.0086
S. aureus Newman [3]	-0.0276
S. pneumoniae D39V [4]	0.137

C/C(=C\C(=O)OCCCCCCCCC(=O)O)C[C@@H]1OC[C@H](C[C@@H]2O[C@H]2[C@@H](C)[C@H](C)O)[C@@H](O)[C@H]1O [Pseudomonic acid] + COc1ccc(C[C@H](N)C(=O)N[C@H]2[C@@H](O)[C@H](n3cnc4c(N(C)C)ncnc43)O[C@@H]2CO)cc1 [Puromycin]
fitness
Settings	first compound 0.03 µg/mL	first compound 0.0313 µg/mL	first compound 0.06 µg/mL	first compound 0.0625 µg/mL	first compound 0.12 µg/mL	first compound 0.125 µg/mL
S. aureus Newman [1], partner 0.39 µg/mL	–	0.0558	–	0.0476	–	0.0585
S. aureus Newman [1], partner 0.78 µg/mL	–	0.0593	–	0.043	–	0.0499
S. aureus Newman [1], partner 1.56 µg/mL	–	0.054	–	0.0656	–	0.0613
S. pneumoniae D39V [2], partner 1 µg/mL	0.901	–	0.774	–	0.556	–
S. pneumoniae D39V [2], partner 2 µg/mL	0.896	–	0.73	–	0.428	–
S. pneumoniae D39V [2], partner 4 µg/mL	0.735	–	0.491	–	0.246	–

Settings	Bliss interaction score
B. subtilis 168	-0.0341
S. aureus DSM 20231	0.01
S. aureus Newman [3]	0.0128
S. pneumoniae D39V [4]	-0.209

C/C(=C\C(=O)OCCCCCCCCC(=O)O)C[C@@H]1OC[C@H](C[C@@H]2O[C@H]2[C@@H](C)[C@H](C)O)[C@@H](O)[C@H]1O [Pseudomonic acid] + Cc1cc(NS(=O)(=O)c2ccc(N)cc2)no1 [Sulfamethoxazol]
fitness
Settings	partner 1 µg/mL	partner 2 µg/mL	partner 4 µg/mL
S. aureus Newman [1], first compound 0.0313 µg/mL	0.0339	0.0298	0.0109
S. aureus Newman [1], first compound 0.0625 µg/mL	0.0352	0.0242	0.0216
S. aureus Newman [1], first compound 0.125 µg/mL	0.0377	0.0254	0.0232
S. pneumoniae D39V [2], first compound 0.03 µg/mL	0.907	0.896	0.877
S. pneumoniae D39V [2], first compound 0.06 µg/mL	0.784	0.776	0.769
S. pneumoniae D39V [2], first compound 0.12 µg/mL	–	–	0.579

Settings	Bliss interaction score
B. subtilis 168	-0.0453
S. aureus DSM 20231	-0.0246
S. aureus Newman [3]	-0.0317
S. pneumoniae D39V [4]	-0.0659

C/C(=C\C(=O)OCCCCCCCCC(=O)O)C[C@@H]1OC[C@H](C[C@@H]2O[C@H]2[C@@H](C)[C@H](C)O)[C@@H](O)[C@H]1O [Pseudomonic acid] + Cn1nnc(-c2ccc(-c3ccc(N4C[C@H](CO)OC4=O)cc3F)cn2)n1 [Tedizolid]
fitness
Settings	partner 0.03125 µg/mL	partner 0.0625 µg/mL	partner 0.125 µg/mL	partner 0.25 µg/mL	partner 0.5 µg/mL
S. aureus Newman [1], first compound 0.0313 µg/mL	–	0.0219	0.0244	0.0038	–
S. aureus Newman [1], first compound 0.0625 µg/mL	–	0.0311	0.0131	0.0239	–
S. aureus Newman [1], first compound 0.125 µg/mL	–	0.031	0.0219	0.018	–
S. pneumoniae D39V [2], first compound 0.03 µg/mL	0.963	0.965	0.82	0.777	–
S. pneumoniae D39V [2], first compound 0.06 µg/mL	0.881	0.9	0.759	0.767	0.516
S. pneumoniae D39V [2], first compound 0.12 µg/mL	0.925	0.923	0.707	0.587	0.382

Settings	Bliss interaction score
B. subtilis 168	-0.0611
S. aureus DSM 20231	0.0061
S. aureus Newman [3]	0.011
S. pneumoniae D39V [4]	0.21

From the supplement of paper PMC10627819
